Test results published in publication PMC7347136 (PLoS ONE, 2020).

How the values were obtained:
Assay in all cases: Carna kinase panel screen
Format in all cases: biochemical
Details in all cases: read-out: % Inhibition ± SD
AKT2 = target: T1, AKT2 (Homo sapiens, UniProt P31751)
T1 construct: purchased Carna Biosciences
Procedure: (§1) IC50 values were determined from a 10-point concentration curve using ATP concentrations approximating Km values. […] The percentage inhibition of each test solution was calculated, which allowed the IC50 value to be determined from concentration versus percentage inhibition curves by fitting to a four parameter logistic curve.

BLK = target: T2, BLK (Homo sapiens, UniProt P51451)
T2 construct: purchased Carna Biosciences
Procedure: as §1

BRAF[V600E] = target: T3, BRAF[V600E] (Homo sapiens, UniProt P15056, V600E)
T3 construct: purchased Carna Biosciences
T3 sequence (P15056 whole entry V600E): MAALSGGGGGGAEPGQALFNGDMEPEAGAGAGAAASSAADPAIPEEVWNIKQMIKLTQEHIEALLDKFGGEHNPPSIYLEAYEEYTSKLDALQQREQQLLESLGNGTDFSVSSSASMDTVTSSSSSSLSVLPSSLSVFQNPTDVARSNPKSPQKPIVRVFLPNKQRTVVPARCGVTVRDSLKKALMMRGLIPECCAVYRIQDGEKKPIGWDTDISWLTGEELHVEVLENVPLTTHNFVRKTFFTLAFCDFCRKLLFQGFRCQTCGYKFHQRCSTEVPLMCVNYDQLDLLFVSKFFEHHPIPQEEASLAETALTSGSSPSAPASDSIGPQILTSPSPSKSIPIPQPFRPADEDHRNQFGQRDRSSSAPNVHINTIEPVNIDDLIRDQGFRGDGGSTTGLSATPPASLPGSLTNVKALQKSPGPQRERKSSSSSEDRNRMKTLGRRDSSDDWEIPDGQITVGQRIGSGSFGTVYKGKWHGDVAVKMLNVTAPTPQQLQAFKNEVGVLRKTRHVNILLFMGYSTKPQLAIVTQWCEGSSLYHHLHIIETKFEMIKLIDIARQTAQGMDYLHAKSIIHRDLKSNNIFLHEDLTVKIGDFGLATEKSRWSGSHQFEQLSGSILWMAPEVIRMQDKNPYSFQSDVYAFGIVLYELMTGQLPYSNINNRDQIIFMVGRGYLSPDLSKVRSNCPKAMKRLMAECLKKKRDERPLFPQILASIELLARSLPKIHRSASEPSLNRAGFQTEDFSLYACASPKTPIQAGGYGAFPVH
Procedure: as §1

CDC2 = target: T4, CDC2 (Homo sapiens, UniProt P06493)
T4 construct: purchased Carna Biosciences
Procedure: as §1

CDK5 = target: T5, CDK5 (Homo sapiens, UniProt Q00535)
T5 construct: purchased Carna Biosciences
Procedure: as §1

CHK1 = target: T6, CHK1 (Homo sapiens, UniProt O14757)
T6 construct: purchased Carna Biosciences
Procedure: as §1

CK1d = target: T7, CK1d (Homo sapiens, UniProt P48730)
T7 construct: purchased Carna Biosciences
Procedure: as §1

CaMK1a = target: T8, CaMK1a (Homo sapiens, UniProt Q14012)
T8 construct: purchased Carna Biosciences
T8 sequence (Q14012 whole entry): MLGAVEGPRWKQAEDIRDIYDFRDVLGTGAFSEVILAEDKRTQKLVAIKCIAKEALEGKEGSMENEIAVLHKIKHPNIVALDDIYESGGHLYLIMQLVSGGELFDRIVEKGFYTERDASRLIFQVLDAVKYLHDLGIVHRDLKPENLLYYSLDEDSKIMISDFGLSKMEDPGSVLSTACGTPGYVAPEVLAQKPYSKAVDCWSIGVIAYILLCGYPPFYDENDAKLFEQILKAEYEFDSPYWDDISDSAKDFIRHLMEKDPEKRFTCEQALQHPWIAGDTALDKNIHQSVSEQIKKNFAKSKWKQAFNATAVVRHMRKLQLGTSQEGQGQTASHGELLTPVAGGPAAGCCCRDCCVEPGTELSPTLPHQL
Procedure: as §1

CaMK1d = target: T9, CaMK1d (Homo sapiens, UniProt Q8IU85)
T9 construct: purchased Carna Biosciences
Procedure: as §1

EEF2K = target: T10, EEF2K (Homo sapiens, UniProt O00418)
T10 construct: purchased Carna Biosciences
Procedure: as §1

EphA8 = target: T11, EphA8 (Homo sapiens, UniProt P29322)
T11 construct: purchased Carna Biosciences
Procedure: as §1

EphB3 = target: T12, EphB3 (Homo sapiens, UniProt P54753)
T12 construct: purchased Carna Biosciences
Procedure: as §1

Erk2 = target: T13, Erk2 (Homo sapiens, UniProt P28482)
T13 construct: purchased Carna Biosciences
Procedure: as §1

FGFR1 = target: T14, FGFR1 (Homo sapiens, UniProt P11362)
T14 construct: purchased Carna Biosciences
Procedure: as §1

HER4 = target: T15, HER4 (Homo sapiens, UniProt Q15303)
T15 construct: purchased Carna Biosciences
Procedure: as §1

HIPK2 = target: T16, HIPK2 (Homo sapiens, UniProt Q9H2X6)
T16 construct: purchased Carna Biosciences
T16 sequence (Q9H2X6 whole entry): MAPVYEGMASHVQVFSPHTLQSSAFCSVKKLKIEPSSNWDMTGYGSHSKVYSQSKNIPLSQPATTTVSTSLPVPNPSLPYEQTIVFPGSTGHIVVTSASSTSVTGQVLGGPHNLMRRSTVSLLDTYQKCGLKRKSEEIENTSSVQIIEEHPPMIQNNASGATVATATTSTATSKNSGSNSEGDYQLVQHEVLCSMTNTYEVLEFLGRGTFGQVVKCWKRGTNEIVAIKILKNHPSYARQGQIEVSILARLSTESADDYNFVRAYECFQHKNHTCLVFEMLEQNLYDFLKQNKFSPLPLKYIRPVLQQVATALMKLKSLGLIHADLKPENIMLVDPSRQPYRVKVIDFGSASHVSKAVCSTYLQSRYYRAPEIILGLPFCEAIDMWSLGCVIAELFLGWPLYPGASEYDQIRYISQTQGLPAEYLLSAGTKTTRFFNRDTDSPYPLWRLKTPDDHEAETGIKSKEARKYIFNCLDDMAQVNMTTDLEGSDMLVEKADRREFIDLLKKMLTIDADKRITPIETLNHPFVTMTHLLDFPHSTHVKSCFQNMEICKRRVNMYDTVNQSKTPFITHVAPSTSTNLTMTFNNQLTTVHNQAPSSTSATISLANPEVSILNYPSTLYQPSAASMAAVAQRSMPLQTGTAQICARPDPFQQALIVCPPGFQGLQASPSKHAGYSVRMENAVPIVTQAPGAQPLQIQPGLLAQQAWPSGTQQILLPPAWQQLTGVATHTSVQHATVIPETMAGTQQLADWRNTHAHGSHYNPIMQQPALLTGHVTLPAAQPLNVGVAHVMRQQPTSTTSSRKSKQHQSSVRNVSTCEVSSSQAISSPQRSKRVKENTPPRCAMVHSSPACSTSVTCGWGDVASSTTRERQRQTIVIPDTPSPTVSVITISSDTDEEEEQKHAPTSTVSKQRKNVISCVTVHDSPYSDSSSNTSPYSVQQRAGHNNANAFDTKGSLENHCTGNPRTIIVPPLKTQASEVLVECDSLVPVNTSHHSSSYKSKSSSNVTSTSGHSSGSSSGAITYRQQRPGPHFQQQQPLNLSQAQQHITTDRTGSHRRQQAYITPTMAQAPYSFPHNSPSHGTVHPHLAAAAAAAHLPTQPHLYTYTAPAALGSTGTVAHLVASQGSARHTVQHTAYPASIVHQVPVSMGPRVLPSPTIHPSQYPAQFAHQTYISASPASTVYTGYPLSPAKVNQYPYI
Procedure: as §1

IKKe = target: T17, IKKe (Homo sapiens, UniProt Q14164)
T17 construct: purchased Carna Biosciences
Procedure: as §1

INSR = target: T18, INSR (Homo sapiens, UniProt P06213)
T18 construct: purchased Carna Biosciences
Procedure: as §1

KDR = target: T19, KDR (Homo sapiens, UniProt P35968)
T19 construct: purchased Carna Biosciences
Procedure: as §1

MAP2K6 = target: T20, MAP2K6 (Homo sapiens, UniProt P52564)
T20 construct: purchased Carna Biosciences
Procedure: as §1

MAP3K2 = target: T21, MAP3K2 (Homo sapiens, UniProt Q9Y2U5)
T21 construct: purchased Carna Biosciences
Procedure: as §1

MELK = target: T22, MELK (Homo sapiens, UniProt Q14680)
T22 construct: purchased Carna Biosciences
Procedure: as §1

MLK3 = target: T23, MLK3 (Homo sapiens, UniProt Q16584)
T23 construct: purchased Carna Biosciences
Procedure: as §1

MNK1 = target: T24, MNK1 (Homo sapiens, UniProt Q9BUB5)
T24 construct: purchased Carna Biosciences
Procedure: as §1

MNK2 = target: T25, MNK2 (Homo sapiens, UniProt Q9HBH9)
T25 construct: purchased Carna Biosciences
Procedure: as §1

MSK2 = target: T26, MSK2 (Homo sapiens, UniProt O75676)
T26 construct: purchased Carna Biosciences
Procedure: as §1

MST2 = target: T27, MST2 (Homo sapiens, UniProt Q13188)
T27 construct: purchased Carna Biosciences
Procedure: as §1

PBK = target: T28, PBK (Homo sapiens, UniProt Q96KB5)
T28 construct: purchased Carna Biosciences
T28 sequence (Q96KB5 whole entry): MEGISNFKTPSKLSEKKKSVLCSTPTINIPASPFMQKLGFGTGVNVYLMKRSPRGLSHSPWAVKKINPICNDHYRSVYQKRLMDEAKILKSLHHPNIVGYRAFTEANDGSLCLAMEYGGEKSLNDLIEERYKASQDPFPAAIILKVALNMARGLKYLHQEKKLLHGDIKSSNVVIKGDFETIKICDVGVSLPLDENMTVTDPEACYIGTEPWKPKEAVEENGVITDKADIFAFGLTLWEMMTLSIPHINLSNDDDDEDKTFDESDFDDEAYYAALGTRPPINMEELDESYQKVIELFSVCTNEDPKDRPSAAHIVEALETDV
Procedure: as §1

PHKG2 = target: T29, PHKG2 (Homo sapiens, UniProt P15735)
T29 construct: purchased Carna Biosciences
T29 sequence (P15735 whole entry): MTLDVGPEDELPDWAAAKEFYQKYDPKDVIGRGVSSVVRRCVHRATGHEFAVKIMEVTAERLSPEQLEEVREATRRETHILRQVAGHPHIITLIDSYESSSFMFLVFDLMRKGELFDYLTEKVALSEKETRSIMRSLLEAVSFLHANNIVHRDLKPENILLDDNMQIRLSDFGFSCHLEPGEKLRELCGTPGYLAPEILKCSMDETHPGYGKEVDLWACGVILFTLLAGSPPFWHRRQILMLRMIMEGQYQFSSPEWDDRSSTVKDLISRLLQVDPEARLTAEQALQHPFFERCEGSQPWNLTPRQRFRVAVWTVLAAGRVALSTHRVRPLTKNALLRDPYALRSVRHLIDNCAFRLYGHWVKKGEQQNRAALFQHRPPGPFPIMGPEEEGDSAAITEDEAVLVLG
Procedure: as §1

PKCb2 = target: T30, PKCb2 (Homo sapiens, UniProt P05771)
T30 construct: purchased Carna Biosciences
Procedure: as §1

PKCg = target: T31, PKCg (Homo sapiens, UniProt P05129)
T31 construct: purchased Carna Biosciences
Procedure: as §1

RAF1 = target: T32, RAF1 (Homo sapiens, UniProt P04049)
T32 construct: purchased Carna Biosciences
T32 sequence (P04049 whole entry): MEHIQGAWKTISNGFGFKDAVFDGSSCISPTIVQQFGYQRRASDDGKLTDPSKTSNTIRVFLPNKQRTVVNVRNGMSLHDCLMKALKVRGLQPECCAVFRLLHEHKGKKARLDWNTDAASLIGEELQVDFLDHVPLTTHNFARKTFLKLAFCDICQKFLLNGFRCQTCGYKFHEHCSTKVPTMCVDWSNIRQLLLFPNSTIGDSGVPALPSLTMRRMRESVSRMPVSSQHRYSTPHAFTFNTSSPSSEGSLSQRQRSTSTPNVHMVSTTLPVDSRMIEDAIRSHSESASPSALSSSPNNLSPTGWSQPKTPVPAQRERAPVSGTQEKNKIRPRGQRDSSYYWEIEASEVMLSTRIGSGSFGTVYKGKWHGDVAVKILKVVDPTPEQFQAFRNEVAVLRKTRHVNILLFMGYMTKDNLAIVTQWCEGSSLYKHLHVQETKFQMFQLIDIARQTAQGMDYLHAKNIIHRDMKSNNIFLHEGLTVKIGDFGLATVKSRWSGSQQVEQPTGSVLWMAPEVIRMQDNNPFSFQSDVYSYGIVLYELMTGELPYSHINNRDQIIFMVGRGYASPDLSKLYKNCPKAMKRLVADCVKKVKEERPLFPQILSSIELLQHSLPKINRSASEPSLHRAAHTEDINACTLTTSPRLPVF
Procedure: as §1

RSK3 = target: T33, RSK3 (Homo sapiens, UniProt Q15349)
T33 construct: purchased Carna Biosciences
Procedure: as §1

SGK = target: T34, SGK (Homo sapiens, UniProt O00141)
T34 construct: purchased Carna Biosciences
Procedure: as §1

SGK3 = target: T35, SGK3 (Homo sapiens, UniProt Q96BR1)
T35 construct: purchased Carna Biosciences
Procedure: as §1

SRC = target: T36, SRC (Homo sapiens, UniProt P12931)
T36 construct: purchased Carna Biosciences
T36 sequence (P12931 whole entry): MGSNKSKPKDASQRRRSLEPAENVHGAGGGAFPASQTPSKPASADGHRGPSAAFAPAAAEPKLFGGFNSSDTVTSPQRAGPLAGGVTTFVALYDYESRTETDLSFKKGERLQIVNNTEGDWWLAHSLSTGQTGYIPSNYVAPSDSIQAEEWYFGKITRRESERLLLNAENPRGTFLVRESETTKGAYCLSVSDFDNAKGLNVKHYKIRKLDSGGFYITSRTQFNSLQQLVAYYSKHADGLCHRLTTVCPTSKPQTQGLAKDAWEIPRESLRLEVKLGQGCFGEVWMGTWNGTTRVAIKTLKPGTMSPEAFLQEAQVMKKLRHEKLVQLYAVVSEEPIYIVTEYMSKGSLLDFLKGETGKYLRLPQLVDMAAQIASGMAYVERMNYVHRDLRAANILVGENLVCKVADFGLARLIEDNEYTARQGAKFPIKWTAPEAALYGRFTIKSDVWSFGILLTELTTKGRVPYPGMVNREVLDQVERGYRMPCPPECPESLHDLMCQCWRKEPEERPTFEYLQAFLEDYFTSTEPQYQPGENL
Procedure: as §1

SRPK1 = target: T37, SRPK1 (Homo sapiens, UniProt Q96SB4)
T37 construct: purchased Carna Biosciences
Procedure: as §1

TEC = target: T38, TEC (Homo sapiens, UniProt P42680)
T38 construct: purchased Carna Biosciences
Procedure: as §1

TRKA = target: T39, TRKA (Homo sapiens, UniProt P04629)
T39 construct: purchased Carna Biosciences
Procedure: as §1

TRKB = target: T40, TRKB (Homo sapiens, UniProt Q16620)
T40 construct: purchased Carna Biosciences
Procedure: as §1

TXK = target: T41, TXK (Homo sapiens, UniProt P42681)
T41 construct: purchased Carna Biosciences
Procedure: as §1

YES = target: T42, YES (Homo sapiens, UniProt P07947)
T42 construct: purchased Carna Biosciences
Procedure: as §1

p38d = target: T43, p38d (Homo sapiens, UniProt O15264)
T43 construct: purchased Carna Biosciences
Procedure: as §1

p70S6K = target: T44, p70S6K (Homo sapiens, UniProt P23443)
T44 construct: purchased Carna Biosciences
T44 sequence (P23443 whole entry): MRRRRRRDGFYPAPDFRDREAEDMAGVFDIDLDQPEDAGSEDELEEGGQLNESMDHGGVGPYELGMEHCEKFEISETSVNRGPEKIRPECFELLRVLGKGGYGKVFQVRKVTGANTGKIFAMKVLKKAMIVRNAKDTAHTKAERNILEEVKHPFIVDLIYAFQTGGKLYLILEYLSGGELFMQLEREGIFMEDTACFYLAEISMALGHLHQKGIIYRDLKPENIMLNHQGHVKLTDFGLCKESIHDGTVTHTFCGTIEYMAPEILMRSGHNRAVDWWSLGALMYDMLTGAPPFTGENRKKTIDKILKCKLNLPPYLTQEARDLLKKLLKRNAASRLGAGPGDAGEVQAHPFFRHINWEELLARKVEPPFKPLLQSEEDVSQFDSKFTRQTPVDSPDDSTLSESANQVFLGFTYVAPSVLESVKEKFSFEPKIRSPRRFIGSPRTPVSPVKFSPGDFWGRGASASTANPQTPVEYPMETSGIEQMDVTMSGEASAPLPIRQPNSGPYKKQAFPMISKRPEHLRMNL
Procedure: as §1

In the case of CC[C@H](Nc1nc(NCc2cnc(C)cc2C)c2ncn(C(C)C)c2n1)[C@@H](C)O [Fadraciclib, 2-pentanol, 3-[[6-[[(4,6-dimethyl-3-pyridinyl)methyl]amino]-9-(1-methylethyl)-9Hpurin-2-yl]amino]-, (2R,3S)], the inhibition at 1 µM (AKT2) is reported as 1.5 ± 0.1%, the inhibition at 1 µM (BLK) is reported as -3.6% and the inhibition at 1 µM (BRAF[V600E]) is reported as -1.9 ± 0.1%. The inhibition at 1 µM (CDC2) was 57.9 ± 1.3%, the inhibition at 1 µM (CDK5) was 98.1 ± 4% and the inhibition at 1 µM (CHK1) was 1.3%. It also gave an inhibition at 1 µM (CK1d) of 13.8 ± 0.4%, an inhibition at 1 µM (CaMK1a) of -14.8 ± 0.2% and an inhibition at 1 µM (CaMK1d) of -14.5 ± 0.1%. For the same molecule, the inhibition at 1 µM (EEF2K) was -10.3 ± 0.2%, the inhibition at 1 µM (EphA8) was 4.2 ± 0.2% and the inhibition at 1 µM (EphB3) was 0%. For the same molecule, the inhibition at 1 µM (Erk2) was 19.6 ± 0.8%, the inhibition at 1 µM (FGFR1) was 7.8% and the inhibition at 1 µM (HER4) was -13 ± 0.3%. For the same molecule, the inhibition at 1 µM (HIPK2) was 2.5 ± 0.1%, the inhibition at 1 µM (IKKe) was 2.5 ± 0.1% and the inhibition at 1 µM (INSR) was -12.2 ± 0.8%. The inhibition at 1 µM (KDR) was -12.8 ± 0.1%, the inhibition at 1 µM (MAP2K6) was 0.7% and the inhibition at 1 µM (MAP3K2) was -14.7 ± 0.8%. The inhibition at 1 µM (MELK) was 5 ± 0.1%, the inhibition at 1 µM (MLK3) was -4.9 ± 0.4% and the inhibition at 1 µM (MNK1) was -13.1 ± 1.6%. It also gave an inhibition at 1 µM (MNK2) of -4.3 ± 0.1%, an inhibition at 1 µM (MSK2) of -3.7% and an inhibition at 1 µM (MST2) of -1.5%. It also gave an inhibition at 1 µM (PBK) of -0.9%, an inhibition at 1 µM (PHKG2) of -10 ± 0.1% and an inhibition at 1 µM (PKCb2) of -14.3 ± 0.1%. The inhibition at 1 µM (PKCg) was 17.2%, the inhibition at 1 µM (RAF1) was -1.1 ± 0.1% and the inhibition at 1 µM (RSK3) was 7.7%. It also gave an inhibition at 1 µM (SGK) of -0.8%, an inhibition at 1 µM (SGK3) of 6.2 ± 0.1% and an inhibition at 1 µM (SRC) of 2.7%. The inhibition at 1 µM (SRPK1) was 5.9 ± 0.2%, the inhibition at 1 µM (TEC) was -14.9% and the inhibition at 1 µM (TRKA) was -10.3 ± 0.3%. The inhibition at 1 µM (TRKB) was -11.4 ± 0.4%, the inhibition at 1 µM (TXK) was 3.1 ± 0.1% and the inhibition at 1 µM (YES) was -7 ± 0.1%. The inhibition at 1 µM (p38d) was -16 ± 0.6% and the inhibition at 1 µM (p70S6K) was 5.6 ± 0.2%.
